Test results: patent EP4273147A1, “SUBSTITUTED SPIROLACTAMS, SALTS THEREOF AND THEIR USE AS HERBICIDALLY ACTIVE SUBSTANCES” (Bayer Aktiengesellschaft, priority 2022, dated 2023)

Tests used:
TRZAS [1] = test: Pre-emergence effects on crop plants (Table D2); assay type: in vivo, Triticum aestivum; settings: crop plant, visual grading after ca. 3 weeks
ALOMY [2] = test: Herbicidal pre-emergence action, section C (Table C2); assay type: in vivo, Alopecurus myosuroides; settings: application rate 320 g/ha; visual grading after ca. 3 weeks
ORYZA [3] = test: Post-emergence effects on crop plants (Table F3); assay type: in vivo, Oryza sativa; settings: application rate 320 g/ha, crop plant ORYZA
Excerpt: (§1) 2 to 3 weeks after sowing, the test plants were sprayed in the single-leaf stage.

ORYZA [4] = test: Pre-emergence effects on crop plants (Table D3); settings: crop plant; application rate 80 g/ha; visual grading after ca. 3 weeks
VERPE [5] = test: Herbicidal pre-emergence action, section C (Table C11); assay type: in vivo, Veronica persica; settings: application rate 80 g/ha; visual grading after ca. 3 weeks
LOLRI [6] = test: Herbicidal pre-emergence action, section C (Table C7); assay type: in vivo, Lolium rigidum; settings: application rate 320 g/ha; visual grading after ca. 3 weeks
SETVI [7] = test: Herbicidal pre-emergence action, section C (Table C10); assay type: in vivo, Setaria viridis; settings: application rate 320 g/ha; visual grading after ca. 3 weeks
ECHCG [8] = test: Herbicidal pre-emergence action (Table A2); assay type: in vivo, Echinochloa crus-galli; settings: visual grading after ca. 3 weeks
Excerpt: (§2) Seeds of mono- and dicotyledonous weed plants were sown in plastic pots (double sowings with one species of mono- and one species of dicotyledonous weed plants per pot), in sandy loam, and covered with soil.

ZEAMX [9] = test: Post-emergence effects on crop plants (Table F1); assay type: in vivo, Zea mays; settings: application rate 320 g/ha, crop plant ZEAMX
Excerpt: as §1

ECHCG [10] = test: Herbicidal pre-emergence action, section C (Table C6); assay type: in vivo, Echinochloa crus-galli; settings: application rate 320 g/ha; visual grading after ca. 3 weeks
POAAN [11] = test: Herbicidal pre-emergence action (Table A7); assay type: in vivo, Poa annua; settings: visual grading after ca. 3 weeks
Excerpt: as §2

VIOTR = test: Herbicidal pre-emergence action, section C (Table C12); assay type: in vivo, Viola tricolor; settings: application rate 320 g/ha; visual grading after ca. 3 weeks
GLXMA [12] = test: Post-emergence effects on crop plants (Table F4); assay type: in vivo, Glycine max; settings: crop plant GLXMA
Excerpt: as §1

BRSNW [13] = test: Pre-emergence effects on crop plants (Table D5); assay type: in vivo, Brassica napus; settings: crop plant, visual grading after ca. 3 weeks
TRZAS [14] = test: Post-emergence effects on crop plants (Table F2); assay type: in vivo, Triticum aestivum; settings: application rate 320 g/ha, crop plant TRZAS
Excerpt: as §1

SETVI [15] = test: Herbicidal pre-emergence action (Table A5); assay type: in vivo, Setaria viridis; settings: visual grading after ca. 3 weeks
Excerpt: as §2

GLXMA [16] = test: Pre-emergence effects on crop plants (Table D4); assay type: in vivo, Glycine max; settings: crop plant; application rate 320 g/ha; visual grading after ca. 3 weeks
ECHCG [17] = test: Herbicidal post-emergence action, section E (Table E5); assay type: in vivo, Echinochloa crus-galli; settings: application rate 320 g/ha; assessed visually after ca. 3 weeks
Excerpt: as §1

STEME = test: Herbicidal pre-emergence action (Table A6); assay type: in vivo, Stellaria media; settings: application rate 320 g/ha; visual grading after ca. 3 weeks
Excerpt: as §2

LOLRI [18] = test: Herbicidal pre-emergence action (Table A3); assay type: in vivo, Lolium rigidum; settings: visual grading after ca. 3 weeks
Excerpt: as §2

ZEAMX [19] = test: Pre-emergence effects on crop plants (Table D1); assay type: in vivo, Zea mays; settings: crop plant, visual grading after ca. 3 weeks
DIGSA [20] = test: Herbicidal pre-emergence action, section C (Table C5); assay type: in vivo, Digitaria sanguinalis; settings: visual grading after ca. 3 weeks
BRSNW [21] = test: Post-emergence effects on crop plants (Table F5); assay type: in vivo, Brassica napus; settings: application rate 320 g/ha, crop plant BRSNW
Excerpt: as §1

DIGSA [22] = test: Herbicidal pre-emergence action (Table A12); assay type: in vivo, Digitaria sanguinalis; settings: visual grading after ca. 3 weeks
Excerpt: as §2

ABUTH = test: Herbicidal pre-emergence action (Table A1); assay type: in vivo, Abutilon theophrasti; settings: application rate 1280 g/ha; visual grading after ca. 3 weeks vs untreated controls (100% = plants have died off, 0% = as control plants)
Excerpt: as §2

ECHCG [23] = test: Herbicidal post-emergence action (Table B3); assay type: in vivo, Echinochloa crus-galli; settings: application rate 1280 g/ha; rated visually after about 3 weeks
Protocol: (§3) Seeds of mono- and dicotyledonous weed plants were placed in plastic pots in sandy loam soil (doubly sown with in each case one species of mono- or dicotyledonous weed plants per pot), covered with soil and cultivated in a greenhouse under controlled growth conditions. 2 to 3 weeks after sowing, the test plants were treated at the one-leaf stage. […] After the test plants had been kept in the greenhouse under optimum growth conditions for about 3 weeks, the activity of the preparations was rated visually in comparison to untreated controls. For example, 100% activity = the plants have died, 0% activity = like control plants.

MATIN = test: Herbicidal pre-emergence action (Table A4); assay type: in vivo, Matricaria inodora; settings: application rate 1280 g/ha; visual grading after ca. 3 weeks
Excerpt: as §2

VERPE [24] = test: Herbicidal pre-emergence action (Table A11); assay type: in vivo, Veronica persica; settings: application rate 1280 g/ha; visual grading after ca. 3 weeks
Excerpt: as §2

ALOMY [25] = test: Herbicidal pre-emergence action (Table A9); assay type: in vivo, Alopecurus myosuroides; settings: application rate 1280 g/ha; visual grading after ca. 3 weeks
Excerpt: as §2

POAAN [26] = test: Herbicidal post-emergence action (Table B7); assay type: in vivo, Poa annua; settings: application rate 1280 g/ha
Protocol: as §3

| pre-emergence activity against ORYZA (ORYZA [4]) | pre-emergence activity against BRSNW (BRSNW [13]; application rate 320 g/ha) | pre-emergence activity against GLXMA (GLXMA [16]) | pre-emergence activity against ZEAMX (ZEAMX [19]; application rate 80 g/ha) | SMILES | pre-emergence activity against ALOMY (ALOMY [2]) | post-emergence activity against ORYZA (ORYZA [3]) | pre-emergence activity against SETVI (SETVI [7]) | pre-emergence activity against ECHCG (ECHCG [8]; application rate 1280 g/ha) | post-emergence activity against ZEAMX (ZEAMX [9]) | pre-emergence activity against ECHCG (ECHCG [10]) | pre-emergence activity against POAAN (POAAN [11]; application rate 320 g/ha) | pre-emergence activity against VIOTR (VIOTR) | post-emergence activity against TRZAS (TRZAS [14]) | pre-emergence activity against SETVI (SETVI [15]; application rate 320 g/ha) | post-emergence activity against ECHCG (ECHCG [17]) | pre-emergence activity against STEME (STEME) | pre-emergence activity against LOLRI (LOLRI [18]; application rate 320 g/ha) | post-emergence activity against BRSNW (BRSNW [21]) | post-emergence activity against ECHCG (ECHCG [23]) | pre-emergence activity against MATIN (MATIN) | other results |
| --- | --- | --- | --- | --- | --- | --- | --- | --- | --- | --- | --- | --- | --- | --- | --- | --- | --- | --- | --- | --- | --- |
| 10% | 20% | 10% | 0% | O=C1N(Cc2ccc(F)cc2F)CCCC12CCCN(Cc1ccc(F)cc1F)C2=O (racemic) [I-021] | 100% | 0% | 100% | 100% | 10% | 100% | 90% | 80% | 0% | 100% | 80% | 90% | 100% | 0% |  |  | pre-emergence activity against TRZAS (TRZAS [1]; application rate 80 g/ha): 0%; pre-emergence activity against VERPE (VERPE [5]): 100%; pre-emergence activity against LOLRI (LOLRI [6]): 100%; post-emergence activity against GLXMA (GLXMA [12]; application rate 320 g/ha): 10%; pre-emergence activity against DIGSA (DIGSA [20]; application rate 80 g/ha): 90% |
|  |  |  |  | O=C1N(Cc2ccccc2Cl)CCCC12CCN(Cc1c(F)cccc1F)C2=O (racemic) [I-076] |  |  |  | 100% |  |  | 100% |  |  |  |  | 90% | 100% |  | 90% | 90% | pre-emergence activity against DIGSA (DIGSA [22]; application rate 320 g/ha): 90%; pre-emergence activity against ABUTH (ABUTH): 90%; pre-emergence activity against SETVI (SETVI [15]; application rate 1280 g/ha): 100% |
|  |  | 0% |  | CC(c1c(F)cccc1F)N1CCCC2(CCCN(C(C)c3c(F)cccc3F)C2=O)C1=O (stereo not shown) [I-074] | 80% | 0% | 90% | 90% | 0% |  |  | 90% | 0% | 90% |  | 90% |  | 0% |  |  | pre-emergence activity against TRZAS (TRZAS [1]; application rate 320 g/ha): 20%; pre-emergence activity against DIGSA (DIGSA [22]; application rate 1280 g/ha): 90%; pre-emergence activity against POAAN (POAAN [11]; application rate 1280 g/ha): 100%; pre-emergence activity against VERPE (VERPE [24]): 90%; post-emergence activity against GLXMA (GLXMA [12]; application rate 80 g/ha): 0%; pre-emergence activity against ALOMY (ALOMY [25]): 90%; pre-emergence activity against BRSNW (BRSNW [13]; application rate 80 g/ha): 0%; pre-emergence activity against LOLRI (LOLRI [18]; application rate 1280 g/ha): 90%; pre-emergence activity against ZEAMX (ZEAMX [19]; application rate 320 g/ha): 0%; pre-emergence activity against DIGSA (DIGSA [20]; application rate 320 g/ha): 100% |
| 0% | 0% | 0% | 0% | COc1ccccc1CN1CCCC2(CCCN(Cc3ccccc3F)C2=O)C1=O (racemic) [I-061] | 80% | 0% | 100% |  | 0% | 100% | 100% |  | 0% | 100% | 80% |  | 100% | 0% | 90% | 90% | post-emergence activity against POAAN (POAAN [26]): 90%; pre-emergence activity against ECHCG (ECHCG [8]; application rate 320 g/ha): 100%; pre-emergence activity against ALOMY (ALOMY [25]): 90% |
